Measurements from ChEMBL document CHEMBL1165930, “The anticancer activity of 3- and 10-bromofascaplysins is mediated by caspase-8, -9, -3-dependent apoptosis” (Bioorg Med Chem, 2010).
Activity calls are given as the source filed them. The rule behind the calls is not given here.

Columns and labels:
HeLa = assay: Cytotoxicity against human HeLa cells after 22 hrs by MTS assay; type: functional, cell-based
HL-60 [1] = assay: Induction of apoptosis in human HL60 cells assessed as total apoptotic cells at 50 to 100 nM after 24 hrs by FITC-conjugated annexin V and propidium iodide staining-based flow cytometry; type: functional
HL-60 [2] = assay: Induction of apoptosis in human HL60 cells assessed as change in mitochondrial permeability at 250 nM after 24 hrs by DiOC6 staining-based flow cytometry (RVB = 90.3%); type: functional
SK-MEL-28 = assay: Cytotoxicity against human SK-MEL-28 cells after 22 hrs by MTS assay; type: functional, cell-based; conditions: SK-MEL-28, 22 h
HL-60 [3] = assay: Cytotoxicity against human HL60 cells after 22 hrs by MTS assay; type: functional, cell-based; conditions: HL-60, 22 h
HL-60 [4] = assay: Induction of apoptosis in human HL60 cells assessed as decrease in Bid protein level at 500 nM after 24 hrs by Western blot analysis; type: functional, cell-based
HL-60 [5] = assay: Induction of apoptosis in human HL60 cells assessed as early apoptotic cells at 250 nM after 24 hrs by FITC-conjugated annexin V and propidium iodide staining-based flow cytometry; type: functional
HL-60 [6] = assay: Induction of apoptosis in human HL60 cells assessed as decrease in procaspase-9 level at 500 nM after 24 hrs by Western blot analysis; type: functional, cell-based
THP-1 = assay: Cytotoxicity against human THP1 cells after 22 hrs by MTS assay; type: functional, cell-based; conditions: THP-1, 22 h
HL-60 [7] = assay: Induction of apoptosis in human HL60 cells assessed as early apoptotic cells at 500 to 1000 nM after 24 hrs by FITC-conjugated annexin V and propidium iodide staining-based flow cytometry; type: functional
[8] = Cytotoxicity against human SNUC4 cells after 22 hrs by MTS assay; type: functional, cell-based; conditions: SNU-C4, 22 h
HL-60 [9] = assay: Induction of apoptosis in human HL60 cells assessed as decrease in procaspase-3 level at 500 nM after 24 hrs by Western blot analysis; type: functional, cell-based
HL-60 [10] = assay: Induction of apoptosis in human HL60 cells assessed as early apoptotic cells at 50 nM after 24 hrs by FITC-conjugated annexin V and propidium iodide staining-based flow cytometry; type: functional
HL-60 [11] = assay: Induction of apoptosis in human HL60 cells assessed as decrease in PARP level at 250 nM after 24 hrs by Western blot analysis; type: functional, cell-based
DLD-1 = assay: Cytotoxicity against human DLD1 cells after 22 hrs by MTS assay; type: functional, cell-based; conditions: DLD-1, 22 h
HL-60 [12] = assay: Induction of apoptosis in human HL60 cells assessed as decrease in procaspase-8 level at 500 nM after 24 hrs by Western blot analysis; type: functional, cell-based
MDA-MB-231 = assay: Cytotoxicity against human MDA-MB-231 cells after 22 hrs by MTS assay; type: functional, cell-based; conditions: MDA-MB-231, 22 h
[13] = Inhibition of EGF-stimulated viability of mouse JB6 Cl41 cells after 22 hrs by MTS assay; type: functional, cell-based; conditions: JB6 Cl41, 22 h
HL-60 [14] = assay: Induction of apoptosis in human HL60 cells assessed as decrease in PARP level at 500 nM after 24 hrs by Western blot analysis; type: functional, cell-based
HL-60 [15] = assay: Induction of apoptosis in human HL60 cells assessed as total apoptotic cells at 1000 nM after 24 hrs by FITC-conjugated annexin V and propidium iodide staining-based flow cytometry; type: functional

`O=C1c2ccccc2-[n+]2ccc3c([nH]c4cc(Br)ccc43)c21.[Cl-]` gave an IC50 (HeLa) of 86 nM, an Activity (HL-60 [1]) of 20% and an Activity (HL-60 [2]) of 60.1%. The IC50 (SK-MEL-28) was > 1000 nM, the IC50 (HL-60 [3]) was 142 nM and the inhibition (HL-60 [4]) was “Active”. The Activity (HL-60 [5]) was 40%, the inhibition (HL-60 [6]) was “Active” and the IC50 (THP-1) was 161 nM. For the same compound, the Activity (HL-60 [7]) was 20%, the IC50 [8] was 125 nM and the inhibition (HL-60 [9]) was “Active”. For the same compound, the Activity (HL-60 [10]) was 5%, the inhibition (HL-60 [11]) was “Active” and the IC50 (DLD-1) was 118 nM. For the same compound, the inhibition (HL-60 [12]) was “Active”, the IC50 (MDA-MB-231) was 173 nM and the IC50 [13] was 144 nM. The inhibition (HL-60 [14]) was “Active” and the Activity (HL-60 [15]) was 90%.
